Test results from patent US12661361B2, “Resmetirom for reducing liver volume” (Madrigal Pharmaceuticals, Inc., priority 2021, dated 2026).

Key:
Type in all cases: in vivo, human
[1] = system: well-compensated NASH cirrhotic patients; experiment: MAESTRO-NAFLD-1 open label resmetirom arm in well-compensated NASH cirrhotic patients
Method: (§1) MRI-PDFF and liver volume (LV) were assessed in, (n=117), and a NASH-cirrhotic active resmetirom treatment arm of MAESTRO-NAFLD-1 (n=73), in patients who had at least baseline and one additional serial PDFF. LV was assessed using a validated artificial intelligence model for segmenting the liver on standard MR images.
MAESTRO-NAFLD-1 is a 52-week >1200 patient Phase 3 randomized double blind placebo controlled NASH clinical trial to study safety and biomarker effects of resmetirom, a selective thyroid hormone receptor beta agonist, in NASH patients with F1-F4 fibrosis identified using non-invasive biomarkers and imaging (NCT04197479). A goal of this “real life” NASH study is to identify non-invasive markers that correlate with individual patient response to resmetirom treatment. The study includes an open label active resmetirom treatment arm in well-compensated NASH cirrhotic patients.
Eligibility required at least 3 metabolic risk factors (metabolic syndrome), and NASH cirrhosis diagnosed on liver biopsy or according to accepted criteria. The primary and key secondary end points of the cirrhotic arm include safety, relative percent reduction of MRI-PDFF (week 16), LDL cholesterol (LDL-C) (week 24), Apolipoprotein B and triglycerides, and markers of fibrosis. Patients received 80-100 mg daily dose of resmetirom for 52 weeks.
105 well-compensated NASH cirrhotic patients were enrolled in the open label arm, 2/3 confirmed by liver biopsy. Demographics include mean age 62.7 (9.0 (SD)), female 64%, BMI 35.4 (7.4), diabetes 70%, hypertension 77%, dyslipidemia >70%, mean ASCVD score 16.1%, hypothyroid 32.4%, 51% on statins. MRE kPa, 5.7 (2.1); fibroscan kPa, 24.6 (14.9), CAP, 318 (59) and mean MRI-PDFF, 8.1% (5). Stage of cirrhosis was inversely correlated with baseline PDFF. At week 52 resmetirom lowered fibroscan CAP (−42 units (p<0.0001) and kPa (−7.6 kPa, p=0.02).

[2] = system: adults with biopsy-confirmed NASH (NAS≥4, F1-F3) and hepatic fat fraction ≥10%; experiment: 36-week Phase 2 serial MRI-PDFF and liver biopsy study; MRI-PDFF and liver volume (LV) assessment
Method: Hepatomegaly may cause symptoms (e.g., pain) in NASH patients, and is thought to be driven primarily by high liver fat content. […] The purpose of this study was to assess the relationship between liver triglycerides as measured by MRI-PDFF and liver volume (LV) in placebo and resmetirom-treated patients.
as §1
LV at baseline was elevated in non-cirrhotic and cirrhotic NASH patients relative to literature values for healthy controls and was greater than predicted even after accounting for sex and body weight. PDFF correlated with LV at baseline in non-cirrhotic (r2=0.19, p<0.001) and more weakly in cirrhotic NASH (r2=0.079, p=0.01). Reduction in LV (CFB) correlated with reduction in PDFF in placebo (r2=0.25, p=0.001) and resmetirom (r2-0.38, p<0.0001) treated patients at 12 (and 36 (not shown)) weeks (see, e.g., FIG. 1).

[3] = system: noninvasively identified NASH patients; experiment: MAESTRO-NAFLD-1 52 week Phase 3, 100 mg open label (OL) non-cirrhotic NASH arm
Method: MAESTRO-NASH NCT03900429 and MAESTRO-NAFLD-1 NCT04197479 are 52 week Phase 3 registrational double blind placebo controlled clinical trials to study the effect of resmetirom in more than 2,000 NASH patients. A goal of MAESTRO-NAFLD-1, a 1,200 patient “real life” NASH study is to identify non-invasive markers that correlate with patient response to resmetirom treatment. The 169 patient, 100 mg open label (OL) arm completed the 52 week study in July 2021.
Eligibility required at least 3 metabolic risk factors (Metabolic syndrome), fibroscan kilopascals (kPa) consistent with ≥F1 fibrosis stage, and MRI-PDFF≥8%. The primary and key secondary endpoints of MAESTRO-NAFLD-1 including safety, relative percent reduction of MRI-PDFF (week 16), LDL cholesterol (LDL-C) (week 24), apolipoprotein B and triglycerides, fibroscan and 52 week endpoints were analyzed in the OL arm.

[4] = cirrhotic NASH patients with PDFF≤5% at baseline, week 16

bone mineral density (DEXA) ([3]; 52 weeks): unchanged
SMILES: CC(C)c1cc(Oc2c(Cl)cc(-n3nc(C#N)c(=O)[nH]c3=O)cc2Cl)n[nH]c1=O [resmetirom, 2-(3,5-dichloro-4-((5-isopropyl-6-oxo-1,6-dihydropyridazin-3-yl)oxy)phenyl)-3,5-dioxo-2,3,4,5-tetrahydro-1,2,4-triazine-6-carbonitrile]
safety and tolerability ([1]; 80-100 mg daily up to 52 weeks): safe and well-tolerated
fibroscan CAP change ([1]; 80-100 mg daily, week 52, p<0.0001): −42 units
fibroscan kPa change ([1]; 80-100 mg daily, week 52, p=0.02): −7.6 kPa
BP reduction ([1]; NASH cirrhotic arm): 4-5 mm
LV mean % CFB [1, 4]: −16.3%
PDFF mean % CFB [1, 4]: −2.5%
ApoB reduction ([1]; independent of cirrhosis stage): 20%
LDL-C reduction ([1]; independent of cirrhosis stage): 20%
Lp (a) reduction ([1]; independent of cirrhosis stage): 30%
triglycerides reduction ([1]; independent of cirrhosis stage): 21%
GGT change ([1]; p=0.04): −27%
PDFF lowered by ([1]; patients with baseline PDFF>5%, p<0.0057): 37%
MRE lowered by ([1]; week 52): 0.68 kPa
patients with MRE reduction of ≥15% ([1]; week 52): 34%
patients with ≥15% reduction in LV ([1]; week 52, independent of baseline cirrhosis severity): 73%
LV reduction ([2]; 12 weeks, p<0.0001 vs placebo): −18.6%
liver fat reduction (MRI-PDFF) ([2]; 36-week Phase 2, compared with placebo, associated with NASH resolution on liver biopsy): statistically significant liver fat reduction
LV reduction ([2]; 36 weeks, p<0.0001 vs placebo): −20.5%
percentage of patients with ≥15% reduction in liver volume ([2]; Week 12, p<0.0001 vs placebo): 69.2%
week 12 imaging response in patients who had NASH resolution and/or fibrosis reduction on biopsy at week 36 ([2]; all such resmetirom treated patients): PDFF reduction ≥30% and/or LV reduction of ≥15%
ELF (inflammatory and fibrosis biomarker) ([3]; 100 mg OL arm): Significant reductions
LV reduction relative to that predicted by % reduction in MRI-PDFF ([3]; 100 mg OL arm): 2-3 fold
M30 (inflammatory and fibrosis biomarker) ([3]; 100 mg OL arm): Significant reductions
adiponectin ([3]; 100 mg OL arm): increase
reverse T3 (inflammatory and fibrosis biomarker) ([3]; 100 mg OL arm): Significant reductions
LDL-C reduction ([3]; 100 mg OL arm, p<0.0001): −22%
apolipoprotein-B reduction ([3]; 100 mg OL arm, p<0.0001): −24%
triglycerides reduction ([3]; 100 mg OL arm, p<0.0001): −24%
blood pressure (systolic, diastolic) reduction ([3]; 100 mg OL arm, p=0.02): ~2 mmHg
patients with weight loss ≥5% ([3]; 100 mg OL arm, linked to resmetirom exposure (SHBG)): ~25%
safety ([3]; 100 mg per day up to 52 weeks): No safety flags were identified
liver volume (LV) reduction ([3]; 100 mg, week 52, p<0.0001): −23%
fibroscan CAP change relative to baseline ([3]; week 52, p<0.0001): −39 (4.6)
fibroscan VCTE change relative to baseline ([3]; week 52, p<0.0001): −1.87
fibroscan VCTE percent change relative to baseline ([3]; week 52, p<0.0001): −20%
MRE change relative to baseline ([3]; week 52, p=0.03): −0.34
